Results taken from article PMC4166484 (European journal of medicinal chemistry, 2011).
Like-named read-outs stand apart in the source and are kept apart here.

Assays:
[1] = test system: SKBR-3 breast cancer cell; assay: MTT cell viability, SKBR-3 breast cancer cell growth; format: cell-based
[2] = test system: 60 human tumor cell lines; assay: NCI DTP screen against 60 human tumor cell lines; format: cell-based; details: read-out: IC50s, growth of a broad range of cancer cell lines
[3] = Pharmacokinetic study, intraperitoneal; format: in vivo, Sprague-Dawley rats; details: male, Sprague-Dawley, rat, plasma, ip, 20 mg/kg
SKBR-3 cells = assay: Cell cycle distribution by FACS; format: cell-based; details: SKBR-3, 0.5 μM and 5 μM, after 12h
A498 = format: cell-based; details: Homo sapiens, A498, 48 h

COc1ccc(CC(=O)Nc2ccc(N(C)S(C)(=O)=O)c(OCc3cc(C)ccc3C)c2)cc1OC [Compound 17, N-[3-(2,5-Dimethyl-benzyloxy)-4-(methanesulfonyl-methyl-amino)-phenyl]-(3,4-dimethoxyphenyl)-acetamide]
IC50 ([1]; Homo sapiens, SK-BR-3, 48 h, read-out: IC50 against SKBR-3 breast cancer cell growth, 48h treatment, MTT assay, six replicates): > 30 µM

Cc1ccc(C)c(COc2cc(NC(=O)c3ccc4c(c3)OCO4)ccc2N(C)S(C)(=O)=O)c1 [Compound 10, Benzo[1,3]dioxole-5-carboxylic acid [3-(2,5-dimethyl-benzyloxy)-4-(methanesulfonyl-methyl-amino)-phenyl]-amide]
IC50 [2]: 0.2 to 0.5 µM | AUC(0-t) ([3]; Rat 2, 20mg/kg i.p.): 22.6 µg·h/mL | AUC(0-t) ([3]; Rat 3, 20mg/kg i.p.): 9.72 µg·h/mL | MRT last ([3]; MRT(0-t), Rat 3, 20mg/kg i.p.): 5.62 h | half-life ([3]; T1/2, Rat 1, 20mg/kg i.p.): 2.44 h | half-life ([3]; T1/2, Rat 2, 20mg/kg i.p.): 3.71 h | half-life ([3]; T1/2, Rat 3, 20mg/kg i.p.): 3.21 h | cell cycle effect (SKBR-3 cells): accumulated at G2/M and subG1 phase | GI50 (A498): 0.122 µM

Cc1ccc(C)c(COc2cc(NC(=O)Cc3ccccc3)ccc2N(C)S(C)(=O)=O)c1 [Compound 24, N-[3-(2,5-Dimethyl-benzyloxy)-4-(methanesulfonyl-methyl-amino)-phenyl]-2-phenyl-acetamide]
IC50 ([1]; read-out: IC50 against SKBR-3 breast cancer cell growth, 48h treatment, MTT assay, six replicates): > 30 µM
